SMILES strings stand for the structures. Like-named read-outs stand apart in the source and are kept apart here.

The text below walks through data of US10865191B2, “Heterocyclic compounds useful as modulators of TNF alpha” (BRISTOL-MYERS SQUIBB COMPANY, priority 2015, dated 2020).

The target of this test is TNFα (Homo sapiens, UniProt P01375). The test can be described thus: TNF induced HEK-Blue assay (NF-kB-driven secreted alkaline phosphatase reporter). It counts as cell-based. As to conditions: TNFα 0.5 ng/mL, HEK-Blue-CD40L cells, 18 h. In outline: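 HEK-Blue-CD40L cells (NF-kB-driven SEAP reporter), 20,000/well, added after 30 min pre-incubation of compound (0.004–25 μM final) with TNFα 0.5 ng/mL final at 37 °C; 18 h incubation. SEAP read with QUANTI-Blue at 620 nm; IC50 from 4-parameter logistic fit, normalized to unstimulated and stimulated DMSO controls.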
TNFα, sequence (P01375 77-233 limits assumed): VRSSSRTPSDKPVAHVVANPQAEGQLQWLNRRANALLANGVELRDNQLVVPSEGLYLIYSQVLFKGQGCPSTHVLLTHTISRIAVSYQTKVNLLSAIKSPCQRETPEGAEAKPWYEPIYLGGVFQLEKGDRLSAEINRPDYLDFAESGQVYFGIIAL

Setting [1] is: read-out: TNF induced HEK-Blue assay IC50 value.
The mark [2] stands for this setting: TNF induced HEK-Blue assay IC50 value.

A word on the IC50: it is the concentration that inhibits the measured activity by half. `Cc1nc2ccc(-c3cnc(C(C)(C)O)nc3)cc2c(N[C@H](C)c2cc(OCC(=O)O)ccc2F)c1Cl` [Example 439, (R)-2-(3-(1-((3-chloro-6-(2-(2-hydroxypropan-2-yl)pyrimidin-5-yl)-2-methylquinolin-4-yl)amino)ethyl)-4-fluorophenoxy)acetic acid]: under setting [1], the IC50 was < 1000 nM.

With `Cc1nc2ccc(-c3cnc(C(C)(C)O)nc3)cc2c(N[C@@H](c2cc(C(O)CO)ccc2F)C(F)F)c1Cl` (mixture of isomers) [Example 402, 1-(3-((S)-1-((3-chloro-6-(2-(2-hydroxypropan-2-yl)pyrimidin-5-yl)-2-methylquinolin-4-yl)amino)-2,2-difluoroethyl)-4-fluorophenyl)ethane-1,2-diol], the IC50 under setting [1] was < 1000 nM.

In the case of `C[C@@H](Nc1c(Cl)cnc2ccc(-c3cnc(C(C)(C)O)nc3)cc12)c1cc(-c2cncs2)ccc1F` [Example 347, (R)-2-(5-(3-chloro-4-((1-(2-fluoro-5-(thiazol-5-yl)phenyl)ethyl)amino)quinolin-6-yl)pyrimidin-2-yl)propan-2-ol], the IC50 under setting [1] is < 1000 nM.

For the molecule `C[C@@H](Nc1c(Cl)cnc2cc(F)c(-c3cnc(C(C)(C)O)nc3)nc12)c1cccc(C(N)=O)c1` [Example 581, (R)-3-(1-((3-chloro-7-fluoro-6-(2-(2-hydroxypropan-2-yl)pyrimidin-5-yl)-1,5-naphthyridin-4-yl)amino)ethyl)benzamide], the IC50 under setting [1] is 10000 to 25000 nM.

Turning to `CC(Nc1c(Cl)cnc2cc(F)c(-c3cnc(N4CCN(C(=O)CCC(=O)O)CC4)nc3)cc12)c1ccccc1F` (single isomer, unassigned) [Example 602, 4-(4-(5-(3-chloro-7-fluoro-4-((1-(2-fluorophenyl)ethyl)amino)quinolin-6-yl)pyrimidin-2-yl)piperazin-1-yl)-4-oxobutanoic acid], the IC50 under setting [1] is < 1000 nM.

For the molecule `C[C@@H](Nc1c(Cl)cnc2ccc(-c3cnc(C(C)(C)O)nc3)cc12)c1cc(Br)ccc1F` [Example 318, (R)-2-(5-(4-((1-(5-bromo-2-fluorophenyl)ethyl)amino)-3-chloroquinolin-6-yl)pyrimidin-2-yl)propan-2-ol], the IC50 under setting [1] was < 1000 nM.

For the molecule `C=Cc1ccc(F)c([C@@H](Nc2c(Cl)cnc3cc(F)c(-c4cnc(C(C)(C)O)nc4)nc23)C(F)F)c1` [Example 215, (R)-2-(5-(7-chloro-8-((2,2-difluoro-1-(2-fluoro-5-vinylphenyl)ethyl)amino)-3-fluoro-1,5-naphthyridin-2-yl)pyrimidin-2-yl)propan-2-ol], the IC50 under setting [1] was < 1000 nM.

With `CC(Nc1c(Cl)cnc2ccc(-c3ccc(C(C)(C)O)cc3)cc12)c1ccoc1` (racemic) [Example 204, 2-(4-(3-chloro-4-((1-(furan-3-yl)ethyl)amino)quinolin-6-yl)phenyl)propan-2-ol], the IC50 under setting [1] is < 1000 nM.

Turning to `Cc1nc2ccc(-c3cnc(C(C)(C)O)nc3)cc2c(N[C@@H](c2cc(C(N)=O)ccc2F)C(F)F)c1Cl` [Example 390, (S)-3-(1-((3-chloro-6-(2-(2-hydroxypropan-2-yl)pyrimidin-5-yl)-2-methylquinolin-4-yl)amino)-2,2-difluoroethyl)-4-fluorobenzamide], under setting [1], the IC50 is < 1000 nM.

In the case of `COc1cc(-c2ccc(F)c([C@@H](C)Nc3c(Cl)cnc4ccccc34)c2)c(OC)nn1` [Example 513, (R)-3-chloro-N-(1-(5-(3,6-dimethoxypyridazin-4-yl)-2-fluorophenyl)ethyl)quinolin-4-amine], the IC50 under setting [1] fell in the range of 1000 to 10000 nM.

Take `CC(Nc1c(Cl)cnc2cc(F)c(-c3cnc(C(O)CN4CCOCC4)cn3)cc12)c1ccccc1F` (stereo not shown) [Example 274, 1-(5-(3-chloro-7-fluoro-4-((1-(2-fluorophenyl)ethyl)amino)quinolin-6-yl)pyrazin-2-yl)-2-morpholinoethan-1-ol]: the IC50 under setting [1] was 1000 to 10000 nM.

In the case of `Cc1nc2ccc(-c3cnc(C(C)(C)O)nc3)cc2c(N[C@H](C)c2cccc(OCCO)c2)c1Cl` [Example 437, (R)-2-(5-(3-chloro-4-((1-(3-(2-hydroxyethoxy)phenyl)ethyl)amino)-2-methylquinolin-6-yl)pyrimidin-2-yl)propan-2-ol], the IC50 under setting [1] is < 1000 nM.

Consider `CC(Nc1c(Cl)cnc2ccc(-c3ccc(C(C)(C)O)cc3)cc12)c1ccco1` (racemic) [Example 192, 2-(4-(3-chloro-4-((1-(furan-2-yl)ethyl)amino)quinolin-6-yl)phenyl)propan-2-ol], for which the IC50 under setting [1] is < 1000 nM.

`Cc1nc2cc(F)c(-c3cnc(C(C)(C)O)nc3)cc2c(N[C@H](C)c2cc(C#N)ccc2F)c1Cl` [Example 382, (R)-3-(1-((3-chloro-7-fluoro-6-(2-(2-hydroxypropan-2-yl)pyrimidin-5-yl)-2-methylquinolin-4-yl)amino)ethyl)-4-fluorobenzonitrile]: the IC50 under setting [1] was < 1000 nM.

As for `C[C@@H](Nc1c(Cl)cnc2ccc(-c3cnc(C(C)(C)O)nc3)cc12)c1cccc(N2CCCC2=O)c1` [Example 363, (R)-1-(3-(1-((3-chloro-6-(2-(2-hydroxypropan-2-yl)pyrimidin-5-yl)quinolin-4-yl)amino)ethyl)phenyl)pyrrolidin-2-one], the IC50 under setting [1] lay within 1000 to 10000 nM.

Take `Fc1ccc(Br)cc1CNc1c(Cl)cnc2ccccc12` [Example 516, N-(5-bromo-2-fluorobenzyl)-3-chloroquinolin-4-amine]: the IC50 under setting [1] was 10000 to 25000 nM.

For the molecule `Cc1nc2ccc(-c3cnc(C(C)(C)O)nc3)cc2c(N[C@H](C)c2ccccc2)c1Cl` [Example 322, (R)-2-(5-(3-chloro-2-methyl-4-((1-phenylethyl)amino)quinolin-6-yl)pyrimidin-2-yl)propan-2-ol], the IC50 under setting [1] was in the range of 10000 to 25000 nM.

For `CC(Nc1c(Cl)cnc2ccc(-c3ccc(C(C)(C)O)cc3)cc12)c1cnco1` (racemic) [Example 203, 2-(4-(3-chloro-4-((1-(oxazol-5-yl)ethyl)amino)quinolin-6-yl)phenyl)propan-2-ol], under setting [1], the IC50 is < 1000 nM.

For the molecule `C[C@@H](Nc1ccnc2ccc(Br)cc12)c1cc(-c2cncnc2)ccc1F` [Example 546, (R)-6-bromo-N-(1-(2-fluoro-5-(pyrimidin-5-yl)phenyl)ethyl)quinolin-4-amine], the IC50 under setting [1] was 10000 to 25000 nM.

On to `Cc1ccc(C)c(Nc2c(Cl)c(C)nc3ccc(-c4ccc(CN5CCNCC5)cc4)cc23)c1` [Example 7, 3-chloro-N-(2,5-dimethylphenyl)-2-methyl-6-(4-(piperazin-1-ylmethyl)phenyl)quinolin-4-amine], for which, under setting [1], the IC50 was < 1000 nM.

Regarding `CC(Nc1c(Cl)cnc2cc(F)c(-c3cnc(C(O)CN4CCOCC4)cn3)cc12)c1ccccc1F` (stereo not shown) [Example 276, 1-(5-(3-chloro-7-fluoro-4-((1-(2-fluorophenyl)ethyl)amino)quinolin-6-yl)pyrazin-2-yl)-2-morpholinoethan-1-ol], the IC50 under setting [1] is 1000 to 10000 nM.

Turning to `Cc1nc2cc(F)c(-c3cnc(C(C)(C)O)nc3)cc2c(N[C@H](C)c2cccc(C#N)c2)c1Cl` [Example 383, (R)-3-(1-((3-chloro-7-fluoro-6-(2-(2-hydroxypropan-2-yl)pyrimidin-5-yl)-2-methylquinolin-4-yl)amino)ethyl)benzonitrile], under setting [1], the IC50 is < 1000 nM.

For the molecule `CC(Nc1c(Cl)cnc2ccc(-c3ccc(C(C)(C)O)cc3)cc12)c1ccnn1C` (racemic) [Example 195, 2-(4-(3-chloro-4-((1-(1-methyl-1H-pyrazol-5-yl)ethyl)amino)quinolin-6-yl)phenyl)propan-2-ol], the IC50 under setting [1] was 10000 to 25000 nM.

In the case of `CNc1ncc(-c2cc(Cl)c3ncc(Cl)c(NC(C)c4ccccc4F)c3c2)cn1` (racemic) [Example 19, 3,8-dichloro-N-(1-(2-fluorophenyl)ethyl)-6-(2-(methylamino)pyrimidin-5-yl)quinolin-4-amine], the IC50 under setting [1] is 10000 to 25000 nM.

For the molecule `CC(Nc1c(Cl)cnc2ccc(-c3cnc(C(C)(C)O)nc3)cc12)c1ccc(F)cc1` (racemic) [Example 157, 2-(5-(3-chloro-4-((1-(4-fluorophenyl)ethyl)amino)quinolin-6-yl)pyrimidin-2-yl)propan-2-ol], under setting [2], the IC50 was 10000 to 25000 nM.

For `C=CC(=O)N1CCN(c2ccc(-c3ccc4ncc(Cl)c(N[C@H](C)c5ccccc5F)c4c3)cn2)CC1` [Example 123, (R)-1-(4-(5-(3-chloro-4-((1-(2-fluorophenyl)ethyl)amino)quinolin-6-yl)pyridin-2-yl)piperazin-1-yl)prop-2-en-1-one], the half-maximal inhibitory concentration (IC50) under setting [1] is < 1000 nM.

In the case of `C[C@@H](Nc1c(Cl)cnc2ccc(-c3cnc(C(C)(C)O)nc3)cc12)c1cc(-c2cnccn2)ccc1F` [Example 341, (R)-2-(5-(3-chloro-4-((1-(2-fluoro-5-(pyrazin-2-yl)phenyl)ethyl)amino)quinolin-6-yl)pyrimidin-2-yl)propan-2-ol], the IC50 under setting [1] is < 1000 nM.

On to `CCCC(C)C(N)c1c(Cl)c(C)nc2ccc(-c3cnc(C(C)(C)O)nc3)cc12` (single isomer, unassigned) [Example 357, 2-(5-(4-(1-amino-2-methylpentyl)-3-chloro-2-methylquinolin-6-yl)pyrimidin-2-yl)propan-2-ol], for which, under setting [1], the IC50 fell in the range of 1000 to 10000 nM.

Consider `Cc1ccc(C)c(Nc2c(Cl)c(COc3cccnc3)nc3ccc(-c4ccc(C#N)nc4)cc23)c1` [Example 41, 5-(3-chloro-4-((2,5-dimethylphenyl)amino)-2-((pyridin-3-yloxy)methyl)quinolin-6-yl)picolinonitrile], for which, under setting [1], the IC50 is 1000 to 10000 nM.

As for `CC(Nc1c(Cl)cnc2cc(F)c(-c3cnc(C(C)(C)O)nc3)cc12)c1ccccc1F` (stereo not shown) [Example 248, 2-(5-(3-chloro-7-fluoro-4-((1-(2-fluorophenyl)ethyl)amino)quinolin-6-yl)pyrimidin-2-yl)propan-2-ol], under setting [2], the IC50 lay in the range of 10000 to 25000 nM.

For `Cc1ccc(C)c(Nc2c(Cl)c(N)nc3ccc(-c4cnc(N5CCN(CC(=O)O)CC5)nc4)cc23)c1` [Example 45, 2-(4-(5-(2-amino-3-chloro-4-((2,5-dimethylphenyl)amino)quinolin-6-yl)pyrimidin-2-yl)piperazin-1-yl)acetic acid], the IC50 under setting [1] is < 1000 nM.
